# Data from US20100303934A1, “METHODS AND COMPOSITIONS FOR NERVE REGENERATION” (Oregon Health & Science University, priority 2004, published 2010).
# B1: NGF: nerve growth factor (Boehringer Mannheim), 10 ng/mL, used to induce process outgrowth (protein, UniProt P01139 122-241, looked up)
# Beta-nerve growth factor: SSTHPVFHMGEFSVCDSVSVWVGDKTTATDIKGKEVTVLAEVNINNSVFRQYFFETKCRASNPVESGCRGIDSKHWNSYCTTTHTFVKALTTDEKQAAWRFIRIDTACVCVLSRKATRRG
# modifications: Beta-nerve growth factor
# notes: nerve growth factor (Boehringer Mannheim), 10 ng/mL, used to induce process outgrowth
# Columns and labels:
# [1] = system: SHSY5Y neuroblastoma cells; assay: Protection against hydrogen peroxide induced toxicity (CellTiter Blue / LDH); type: cell-based, human; details: positive control, concentration not given; H2O2 125 to 500 μM
# Experimental: SHSY5Y neuroblastoma cells were grown in DMEM/F12 medium (from Gibco) containing 10% fetal calf serum (FCS), 100 ug/ml streptomycin sulphate, 100 U/ml penicillin G in a humidified air/5% CO2 chamber at 37 C. The following method was followed: Day1. Plate SHSY5Y cells on 24-well plate at 100,000/well Day4. Remove old medium, add fresh medium with 10 ng/ml NGF. Day5. Add GK, GKW or EGCG (epigallocatechin gallate; a known antioxidant), overnight. Day6. Remove old medium (containing test substances), add fresh medium (2% FCS) with 10 ng/ml NGF. Treat cells with or without H2O2, for 2-3 hours. Remove medium and H2O2, wash 1× with fresh medium with NGF, add fresh medium (2% FCS) with NGF again, incubate overnight. Day7. Harvest supernatant for LDH assay. Add fresh medium and CellTiter Blue reagent (from Promega, containing resazurin) into each well, incubate for 2 hours, read fluorescence under the Fluorometer. @ 560 nm EX/590 nm EM, cut off 590 nm.
# [2] = system: SH-SY5Y human neuroblastoma cells; assay: Neurite elongation (neurite outgrowth length) assay in SH-SY5Y cells in the presence of NGF; type: cell-based; details: for Process elongation in micrographs (FIGS. 3-10): SH-SY5Y cells at 168 hours, with NGF; for Activity in the neurite elongation assay (FIG. 17): tested at 1 μm, in the presence of NGF
# Experimental: SH-SY5Y human neuroblastoma cells were maintained in DMEM medium (GIBCO) supplemented with 10% fetal calf serum (SIGMA), 50 IU/mL penicillin, and […] streptomycin (GIBCO) at 37° C. in 7% CO2. Cells were plated in six-well plates at 1×10^6 cells/well and treated with […] aphidicolin (SIGMA). At five days, cells were washed, treated with nerve growth factor (NGF) (Boehringer Mannheim, Indianapolis, Ind.) at 10 ng/mL (to induce process outgrowth) in the presence or absence of the Centella asiatica extract and extract fractions (100 μg/mL). […] All experiments were run in duplicate wells and repeated at least twice for reproducibility.
# Neurite lengths were measured on photographic prints using a SummaSketch III digitizing tablet connected with Bioquant Classic 95 software (R&M Biometrics, Nashville, Term.); only those processes greater than two times the cell body length were measured. […] Histograms were compared using a Mann-Whitney U test, which makes no assumptions about the shape of the distribution.
Molecule,Process elongation in micrographs (FIGS. 3-10) [2],Activity in the neurite elongation assay (FIG. 17) [2],other results
"O=C(O[C@@H]1Cc2c(O)cc(O)cc2O[C@@H]1c1cc(O)c(O)c(O)c1)c1cc(O)c(O)c(O)c1 [EGCG, epigallocatechin gallate]",–,–,Protection against H2O2 toxicity [1]: protective
"C=CC[C@@H]1/C=C(\C)C[C@H](C)C[C@H](OC)[C@H]2O[C@@](O)(C(=O)C(=O)N3CCCC[C@H]3C(=O)O[C@H](/C(C)=C/[C@@H]3CC[C@@H](O)[C@H](OC)C3)[C@H](C)[C@@H](O)CC1=O)[C@H](C)C[C@@H]2OC [FK506, reference compound]",–,–,Neurite elongation activity in the absence of NGF ([2]; absence of NGF): no activity
C[C@H]1[C@H](C)CC[C@]2(C(=O)O)CC[C@]3(C)C(=CC[C@@H]4[C@@]5(C)C[C@@H](O)[C@H](O)[C@@](C)(CO)[C@@H]5CC[C@]43C)[C@H]12 [asiatic acid],markedly increased,active,"Activity of AA in the presence of the MEK inhibitor PD 098059 ([2]; FIG. 10, 168 hours): prevented; Stimulation of neurite outgrowth elongation ([2]; concentration of 104 (0.5 μg/mL)): considerable stimulation"
C[C@H]1[C@H](C)CC[C@]2(C(=O)O)CC[C@]3(C)C(=CC[C@@H]4[C@@]5(C)C[C@@H](O)[C@H](O)[C@@](C)(CO)[C@@H]5[C@H](O)C[C@]43C)[C@H]12 [madecassic acid],–,active,–
madecassoside,–,not active,–
B1,demonstrate process elongation,–,"Mean neurite length (μm) at 168 h ([2]; test substance 100 μg/mL, in the presence of NGF (10 ng/mL), 168 h): 115 μm"
